From patent US7411090B2, “Process for the recovery of citric acid” (A.E. Staley Manufacturing Company, priority 2003, dated 2008)

Experiment: Extraction into non-amine (NA) solvent from solutions containing both glucose and citric acid
Format: physicochemical
Settings: selectivity decreases with increase in distribution of citric into solvent phase
Text: The citric/glucose selectivity decreases with the increase in the distribution of citric into the solvent phase.

## O=C(O)CC(O)(CC(=O)O)C(=O)O [citric acid]
  citric/glucose selectivity of extraction into the NA solvent: selectively extracted
